Some results are limits rather than exact numbers.

The target in data set [1] is T1, C3a anaphylatoxin chemotactic receptor (Homo sapiens, UniProt Q16581).
T1 sequence (Q16581 whole entry): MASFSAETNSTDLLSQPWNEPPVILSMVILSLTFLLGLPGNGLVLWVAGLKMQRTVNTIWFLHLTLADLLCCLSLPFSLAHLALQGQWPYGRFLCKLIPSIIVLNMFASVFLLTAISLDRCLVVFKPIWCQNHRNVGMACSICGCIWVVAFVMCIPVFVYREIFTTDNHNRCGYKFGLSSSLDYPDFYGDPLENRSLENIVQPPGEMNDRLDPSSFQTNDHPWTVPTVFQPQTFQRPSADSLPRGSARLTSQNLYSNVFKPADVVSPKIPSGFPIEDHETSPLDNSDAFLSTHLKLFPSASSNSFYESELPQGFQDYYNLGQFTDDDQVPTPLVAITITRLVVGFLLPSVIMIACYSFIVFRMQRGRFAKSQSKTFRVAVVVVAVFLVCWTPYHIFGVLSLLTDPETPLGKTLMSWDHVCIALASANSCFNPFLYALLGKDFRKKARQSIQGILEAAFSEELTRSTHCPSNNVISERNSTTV
As to the kind of experiment: Inhibition of human C3a receptor expressed on HMC1 cells by SPA assay. Type of data set: cell-based.

The target of data set [2] is T1, C3a anaphylatoxin chemotactic receptor. Description: Antagonist activity at C3aR. Type of data set: functional.
For data set [3] the target is unchanged. Description: Agonist activity at C3a receptor expressed on HMC1 cells. It is filed as functional, cell-based.
The nature of data set [4]: Peak plasma concentration in ovalbumin-induced BALB/c mouse model of airway inflammation at 30 mg/kg, ip after 30 mins. Type of data set: ADME, organism-based. Also on record: dose 30 mg/kg, route intraperitoneal.
Data set [5] in a line: Bioavailability in rats at 1 mg/kg, po. Particulars: rat, in vivo. Type of data set: ADME, organism-based.
A short description of data set [6]: Peak plasma concentration in ovalbumin-induced BALB/c mouse model of airway inflammation at 3 mg/ml aerosol after 30 mins. It is filed as ADME, organism-based. Particulars: inhaled or intranasal.
Data set [7] can be described thus: Bioavailability in rats at 1 mg/kg, […]. The conditions noted are these: rat, in vivo. It is filed as ADME, organism-based.
The nature of data set [8]: Metabolic clearance in rat liver microsomes. Type of data set: ADME, Microsome. (Liver microsomes are a subcellular fraction often used to study metabolism.)
Data set [9] in a line: Metabolic clearance in rat hepatocytes assessed per 10^6 cells. It is filed as ADME, cell-based, Liver, Hepatocyte.
Another data set has as its target CYP3A4 (Homo sapiens, UniProt P08684). As to the kind of experiment: Inhibition of CYP3A4 at 50 uM. Type of data set: ADME.
In a further data set the target is CYP2D6 (Homo sapiens, UniProt P10635). Description: Inhibition of CYP2D6 at 50 uM. Type of data set: ADME.
Sequence of CYP2D6 (P10635 whole entry): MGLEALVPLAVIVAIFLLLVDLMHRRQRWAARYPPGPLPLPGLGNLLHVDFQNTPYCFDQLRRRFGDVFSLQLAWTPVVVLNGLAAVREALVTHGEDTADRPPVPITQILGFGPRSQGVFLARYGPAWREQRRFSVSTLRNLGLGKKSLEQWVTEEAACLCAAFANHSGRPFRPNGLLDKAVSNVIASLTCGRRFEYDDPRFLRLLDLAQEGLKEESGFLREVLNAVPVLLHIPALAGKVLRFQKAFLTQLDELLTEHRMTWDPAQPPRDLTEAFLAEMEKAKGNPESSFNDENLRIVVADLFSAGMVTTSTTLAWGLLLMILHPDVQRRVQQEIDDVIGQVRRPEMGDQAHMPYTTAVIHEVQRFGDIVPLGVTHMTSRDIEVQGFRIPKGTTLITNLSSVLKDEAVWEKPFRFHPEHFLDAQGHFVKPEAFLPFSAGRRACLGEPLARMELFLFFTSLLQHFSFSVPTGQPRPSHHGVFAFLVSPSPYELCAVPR
Data set [10] can be described thus: Permeability from apical to basolateral side in Caco-2 cells. It is filed as ADME, cell-based. Particulars: human, read-out: permeability. A general note: Caco-2 monolayers are a common model of the intestinal barrier.

Sequence of CYP3A4 (P08684 whole entry): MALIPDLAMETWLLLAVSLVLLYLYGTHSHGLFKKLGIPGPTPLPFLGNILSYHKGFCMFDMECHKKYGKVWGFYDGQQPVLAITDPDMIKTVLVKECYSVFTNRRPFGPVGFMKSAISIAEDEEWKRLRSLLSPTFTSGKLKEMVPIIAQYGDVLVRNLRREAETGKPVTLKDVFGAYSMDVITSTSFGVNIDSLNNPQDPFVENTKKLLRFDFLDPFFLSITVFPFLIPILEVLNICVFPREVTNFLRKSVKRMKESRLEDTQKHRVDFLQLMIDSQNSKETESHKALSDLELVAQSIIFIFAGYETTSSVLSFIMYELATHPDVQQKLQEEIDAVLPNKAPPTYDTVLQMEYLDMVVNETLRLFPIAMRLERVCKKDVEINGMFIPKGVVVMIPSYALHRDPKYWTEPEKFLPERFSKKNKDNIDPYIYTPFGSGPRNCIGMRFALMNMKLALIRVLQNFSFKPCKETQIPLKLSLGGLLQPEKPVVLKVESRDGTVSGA

The IC50 is the concentration that inhibits the measured activity by half. A high value points to a need for much substance. Take `Cc1ccc(Cl)cc1-c1ccc(C(=O)N[C@H](CCCN=C(N)N)C(=O)O)o1`: the IC50 in [1] was 794 nM. For `N=C(N)NCCC[C@@H](NC(=O)c1ccc(-c2csc3ccccc23)o1)C(=O)O`, the IC50 in [1] is 316 nM. As for `NC(N)=NCCC[C@@H](NC(=O)c1ccc(-c2cccc3c2oc2ccccc23)o1)C(=O)O`, the IC50 in [1] was 3980 nM. In data set [1], `N=C(N)NCCC[C@@H](NC(=O)c1ccc(-c2cccc(Cl)c2)cc1)C(=O)O` gave an IC50 of 100000 nM. This IC50 is about 25-fold higher than that of the compound before.

The EC50 is the concentration giving half of the maximal effect. Low values mean higher potency in that assay, high ones lower potency in that assay. In data set [1], `NC(N)=NCCC[C@@H](NC(=O)c1cccc(-c2cccc(Cl)c2)c1)C(=O)O` gave an IC50 of 794 nM. A half-maximal response in data set [2] (EC50) required 3980 nM. In data set [1], `NC(N)=NCCC[C@@H](NC(=O)N1CCN(C(c2ccccc2)c2ccccc2)CC1)C(=O)O` had an IC50 of 50100 nM. As for `N=C(N)NCCC[C@@H](NC(=O)c1ccc(C(c2ccccc2)c2ccccc2)cc1)C(=O)O`, the IC50 in data set [1] is 794 nM. As to `N=C(N)NCCC[C@@H](NC(=O)c1ccc(C(c2cccc(F)c2)c2cccc(F)c2)o1)C(=O)O`, in data set [1], the IC50 was 31.6 nM. In [2], the response was half-maximal at 1260 nM (EC50). `NC(N)=NCCC[C@@H](NC(=O)c1ccc(C(c2ccc(Cl)cc2)c2ccc(Cl)cc2)o1)C(=O)O` gave an IC50 in [1] of 158 nM. Also, the EC50 in data set [3] was 126 nM.

The term Cmax denotes the peak of the concentration-time curve. The bioavailability is the share of a dose that reaches the circulation, judged against a reference dose that is usually intravenous. The microsomal CLint is a measure of how fast metabolising enzymes remove a compound, apart from limits set by blood flow. The hepatocyte CLint is the rate of metabolic loss divided by the concentration. A lower hepatocyte CLint goes with greater metabolic stability. As a reminder, the inhibition is the change of the read-out against control, counted positive when it falls. Read a low inhibition as a weak effect. As for `N=C(N)NCCC[C@H](NC(=O)c1ccc(C(c2ccccc2)c2ccccc2)o1)C(=O)O`, the Cmax in data set [4] came out at 33800 ng/mL; in data set [6] it was 27 ng/mL. Besides, the bioavailability in [5] and in data set [7] was < 1% throughout. Moreover, the microsomal CLint in data set [8] came to 4 µL/min/mg. In data set [9], this compound had a hepatocyte CLint of 5 µL/min/1e6 cells. In addition, the figures for the inhibition at 50 µM against CYP3A4 and against CYP2D6 were 0% and 12%, respectively. The Papp A→B in data set [10] came out at 0.4 ×10⁻⁶ cm/s. In data set [1], `Cc1cccc(-c2ccc(C(=O)N[C@H](CCCNC(=N)N)C(=O)O)o2)c1` had an IC50 of 126 nM.

Compound `N#Cc1cccc(-c2ccc(C(=O)N[C@H](CCCNC(=N)N)C(=O)O)o2)c1` had an IC50 in [1] of 200 nM. For the compound `N=C(N)NCCC[C@@H](NC(=O)c1ccc(-c2cccc(Cl)c2)o1)C(=O)O`, half-maximal inhibition in data set [1] (IC50) was put at 79.4 nM. The compound also had an EC50 in data set [3] of 501 nM. As to `NC(N)=NCCC[C@@H](NC(=O)c1ccc(-c2ccc(F)c(Cl)c2)o1)C(=O)O`, in data set [1], the IC50 is 200 nM. Take `N=C(N)NCCC[C@@H](NC(=O)c1ccc(-c2cc(Cl)ccc2Cl)o1)C(=O)O`: half-maximal inhibition in [1] (IC50) required 1580 nM. This IC50 lies about 7.9-fold higher than the previous one. The compound `N=C(N)NCCC[C@@H](NC(=O)c1ccc(C(c2cccc(Cl)c2)c2cccc(Cl)c2)o1)C(=O)O` gave an IC50 in data set [1] of 15.8 nM. In data set [3], this compound showed an EC50 of 20 nM. With `N=C(N)NCCC[C@H](NC(=O)COCC(c1ccccc1)c1ccccc1)C(=O)O`, in [1], the IC50 was 501 nM. On to `N=C(N)NCCC[C@@H](NC(=O)c1ccc(-c2cccc(F)c2)o1)C(=O)O`, for which, in [1], half-maximal inhibition (IC50) required 316 nM. Compound `N=C(N)NCCC[C@@H](NC(=O)c1ccc(-c2cccc(Cl)c2)s1)C(=O)O` showed an IC50 in [1] of 6310 nM. In data set [2], the EC50 is 15800 nM.

In data set [1], `COc1cccc(-c2ccc(C(=O)N[C@H](CCCN=C(N)N)C(=O)O)o2)c1` had an IC50 of 316 nM. This counts as sub-micromolar. Consider `N=C(N)NCCC[C@@H](NC(=O)c1ccc(-c2cccc(CO)c2)o1)C(=O)O`, for which the IC50 in data set [1] is 794 nM. On to `CCOc1cccc(-c2ccc(C(=O)N[C@H](CCCN=C(N)N)C(=O)O)o2)c1`, for which it took 200 nM to reach half-maximal inhibition in [1] (IC50).

These data come from ChEMBL document CHEMBL1145356, “Discovery of new C3aR ligands. Part 1: arginine derivatives” (Bioorg Med Chem Lett, 2007).
